{
  "source": "patent US12491187B2",
  "about": "“Use of MCT1 inhibitors to enhance insulin sensitivity” (H. LEE MOFFIT CANCER CENTER AND RESEARCH INSTITUTE, INC., priority 2022, dated 2025)",
  "type_in_all_cases": "cell-based, murine",
  "key": {"[1]": {"test_system": "differentiated 3T3-L1 adipocytes", "assay": "Intracellular lactate (Lactate-Glo)", "conditions": "1 μM", "experimental": "Intracellular Lactate: Intracellular lactate was measured using the Lactate-Glo™ Assay Kit (Promega®) according to the manufacturer's instructions. 3T3-L1 cells were seeded and differentiated in white clear bottom 96-well plates (Corning®). After differentiation, cells were treated with compound or vehicle as indicated. Following 15 min, 30 min, 1 hr, 4 hr, 8 hr or 24 hr incubation with […] AZD6965, media was removed, and cells were lysed. Lysates were then subjected to a proprietary enzymatic reaction coupling lactate oxidation and NADH production with a bioluminescent detection system supplied by the Lactate-Glo™ Assay kit, and luminescence was read on a spectrophotometer (FlexStation 3; Molecular Devices). The data generated were normalized by dividing the relative luminescence units (RLU) collected for each experimental condition by the average RLU of vehicle control."}, "[2]": {"test_system": "differentiated 3T3-L1 adipocytes", "assay": "Hyperplasia (intracellular triglycerides, Triglyceride-Glo)", "experimental": "Hyperplasia (Intracellular Triglycerides): 3T3-L1 cells were seeded and differentiated in clear bottom 96-well plates (Corning®). After differentiation, cells were treated with or without 1 μM AZD3965 for 24 hr, 48 hr or 72 hr. After compound incubation, media was changed to normal growth media with or without 100 nM insulin and cultured for an additional 72 hrs. Upon completion of the second incubation period, adipocytes were lysed and subjected to the Triglyceride-Glo™ Assay (Promega®) according to the manufacturer's instructions. The luminescent signal produced is proportional to the amount of triglycerides detected within the sample. Luminescence was read on a spectrophotometer (FlexStation 3; Molecular Devices)."}, "[3]": {"test_system": "differentiated 3T3-L1 adipocytes", "assay": "Ki67 expression (confocal microscopy and quantification)", "conditions": "1 μM, 24 hr, vs untreated adipocytes", "experimental": "Confocal Microscopy: Cells were seeded and differentiated on 8 chamber μ-Slides (Ibidi®). Differentiated cells treated with vehicle (DMSO) or 1 μM AZD3965 for 24 hr were fixed in 4% PFA for 10 min at room temperature, permeabilized with 0.1% Triton™ X-100 in PBS and blocked with 3% BSA in PBS for an hr. Cells were subsequently incubated with Ki67 antibody (NBP2-22112, Novus Biologicals) at a 1:500 dilution in PBS 3% BSA overnight at 4° C. Cells were washed with PBS and incubated with goat anti-rabbit Alexa Fluor 647 secondary antibody (Invitrogen) at 1:2000 dilution in PBS 3% BSA for 1 hr. Lipid droplets were stained with BODIPY® (Invitrogen) for 20 min at room temperature according to the manufacturer's recommendations. Nuclei were stained for 20 min at room temperature with 4,6-diamidino-2-phenylindole (DAPI) (Sigma-Aldrich) in PBS 3% BSA, diluted at 1:5000 from a 1 mg/ml stock. Images were acquired on the Leica TCS SP8 laser scanning confocal microscope Leica Microsystems) at a magnification of 630× with 3× zoom. Ki67 Expression Quantification: Slides were prepared as outlined in ‘Confocal Microscopy’, After staining, Ki67 expression was imaged and analyzed on the Cytation 5 Cell Imaging Multi-Mode reader (BioTek Instruments) through the measure of fluorescence intensity and deep red fluorescent (Alexa647) positive pixels. […]"}, "[4]": {"test_system": "differentiated 3T3-L1 cells", "assay": "RT-qPCR of mRNA levels in differentiated adipocytes", "experimental": "RT-qPCR: RNA was harvested from preadipocytes using the RNeasy® Plus Mini Kit as per manufacturer's recommendations (Qiagen). For differentiated adipocytes, RNA was collected and isolated using TRIzol (Thermo Fisher Scientific) according to the manufacturer's instructions. Quantification of RNA was performed using the Nanodrop 1000 Spectrophotometer. RNA (2 μg) was reverse transcribed using Superscript III First Strand synthesis kit (Invitrogen). RT-qPCR detection with SYBR green was performed with the resulting cDNA and a 50/50 forward primer: reverse primer ratio using the QuantStudio™ 5 (Applied Biosystems™). Oligonucleotide primer sequences used in this study can be found in the table below."}, "[5]": {"test_system": "differentiated 3T3-L1 (WT) cells", "conditions": "mouse", "experimental": "Cell Viability: 3T3-L1 cells were seeded and differentiated in white, clear bottom, 384-well plates (Corning®). Following differentiation, adipocytes were treated for 24, 48 or 72 hr with varying concentrations of AZD3965 ranging from 0.1 nM to 10 µM. Following the indicated incubation period, cells were assayed with CytoTox-Glo™ (Promega®) according the manufacturer's instructions to assess cell toxicity. Briefly, this assay is a luminescent cytotoxicity kit that measures the relative number of dead cells in a population through the addition of a cell impermeant luminogenic substrate which luminesces in the presence of ‘dead-cell protease’, a protein released from membrane-compromised, dead cells. Luminescence was read on a spectrophotometer (FlexStation 3; Molecular Devices). The data generated were normalized by dividing the relative luminescence units (RLU) collected for each experimental condition by the average RLU of ‘basal’ untreated cells considered to be 100% viable."}, "[6]": {"conditions": "differentiated adipocytes, 1 μM, 24 hr"}, "[7]": {"conditions": "mature adipocytes, 24 hr treatment"}},
  "data": [
    {"smiles": "Cc1[nH]nc(C(F)(F)F)c1Cc1sc2c(c1C(=O)N1C[C@](C)(O)CO1)c(=O)n(C)c(=O)n2C(C)C", "note": "[AZD3965, 5-[[(4S)-4-hydroxy-4-methyl-2-isoxazolidinyl]carbonyl]-3-methyl-1-(1-methylethyl)-6-[[5-methyl-3-(trifluoromethyl)-1H-pyrazol-4-yl]methyl]-thieno[2,3-d]pyrimidine-2,4 (1H, 3H)-dione]", "values": [
      {"measurement": "intracellular lactate levels relative to basal", "setting": "[1]; after 24 hr", "value": "approximately 2 fold"},
      {"measurement": "intracellular lactate", "setting": "[1]; within 15 minutes, maintained through first 4 hr", "value": "significant increase"},
      {"measurement": "total triglyceride content", "setting": "[2]; pretreated 1 μM 24 hr and 72 hr, then cultured 72 hr with 100 nM insulin", "value": "did not reach statistical significance"},
      {"measurement": "total triglyceride content", "setting": "[2]; pretreated 1 μM 48 hr, then cultured 72 hr with 100 nM insulin", "value": "significantly more triglycerides"},
      {"measurement": "total triglyceride content", "setting": "[2]; pretreated 1 μM up to 72 hr, then cultured 72 hr without insulin", "value": "significantly more triglycerides"},
      {"measurement": "expression of Ki67", "setting": "[3]", "value": "significant increase"},
      {"measurement": "CDK1 mRNA level", "setting": "[4]; [6]", "value": "significant upregulation"},
      {"measurement": "Cyclin B mRNA level", "setting": "[4]; [6]", "value": "significant upregulation"},
      {"measurement": "PLK1 mRNA level", "setting": "[4]; [6]", "value": "significant upregulation"},
      {"measurement": "TOP2A mRNA level", "setting": "[4]; [6]", "value": "significant upregulation"},
      {"measurement": "FABP4 mRNA levels", "setting": "[4]; [7]", "value": "significantly increased"},
      {"measurement": "HSL mRNA levels", "setting": "[4]; [7]", "value": "significantly decreased"},
      {"measurement": "PPARγ transcript levels", "setting": "[4]; [7]", "value": "significant decrease"},
      {"measurement": "cytotoxicity / cell viability", "setting": "[5]", "value": "not due to AZD3965-induced cytotoxicity"}
    ]}
  ]
}
